Usually IC50 stands for the concentration that gives 50% inhibition.

For one series, the system named is SK-HEP1. Description: Antiproliferative activity against human SKHEP1 cells after 48 hrs by MTT assay. In kind it is functional, cell-based. To be noted: SK-HEP1, 48 h.
The subject of another series is MDA-MB-231. Description: Antiproliferative activity against human MDA-MB-231 cells after 48 hrs by MTT assay. In kind it is functional, cell-based. To be noted: MDA-MB-231, 48 h.
A further series concerns HepG2. In words: Antiproliferative activity against human HepG2 cells after 48 hrs by MTT assay. In kind it is functional, cell-based. The settings on record: HepG2, 48 h.
The next series has as its system MCF7. Description: Antiproliferative activity against human MCF7 cells after 48 hrs by MTT assay. In kind it is functional, cell-based. The settings on record: MCF7, 48 h. (Tetrazolium dyes change colour on reduction, which living cells bring about.)
A short description of series [1]: Drug localization in mitochondria of human HepG2 cells at 10 uM after 30 mins by Rh123 green dye-based confocal laser scanning microscopic analysis. In kind it is ADME. To be noted: 0.5 h.
A short description of series [2]: Drug localization in human HepG2 cells at 10 uM after 2 hrs by confocal laser scanning microscopic analysis. To be noted: hepg2, 2 h. In kind it is ADME, cell-based.

`CC(C)c1ccc(NC(=O)CO/N=C2\CC[C@H]3C4=CC=C5C[C@@H](O)CC[C@]5(C)[C@H]4CC[C@]23C)cc1`: the IC50 with SK-HEP1 turned out to be 23.2 µM; with MDA-MB-231 it was 35 µM; in the series on HepG2, 26.7 µM; with MCF7 it was 31.6 µM.

Take `C[C@]12CC[C@@H]3[C@]4(C=C[C@]5(C[C@@H](O)CC[C@]35C)OO4)[C@@H]1CC/C2=N\OCC(=O)Nc1cccc(F)c1`: the concentration for half-maximal inhibition (IC50) in the series with SK-HEP1 was determined as 37.6 µM; with MDA-MB-231 it was 26.3 µM; in the series on HepG2, 40.5 µM; with MCF7 it was 29.5 µM.

As to `C[C@]12CC[C@H](O)CC1=CC=C1[C@@H]2CC[C@]2(C)/C(=N/OCC(=O)Nc3ccccc3)CC[C@@H]12`, the IC50 is 73.8 µM with SK-HEP1, more than 80 µM in the series on MDA-MB-231, more than 80 µM in the series on HepG2 and more than 80 µM in the series with MCF7.

In the case of `Cc1cccc(NC(=O)CO/N=C2\CC[C@H]3[C@@]45C=C[C@]6(C[C@@H](O)CC[C@]6(C)[C@@H]4CC[C@]23C)OO5)c1`, the half-maximal inhibitory concentration (IC50) in the series on SK-HEP1 came out at 30.6 µM; with MDA-MB-231 it was 45.5 µM; in the series on HepG2 it was 35.4 µM; in the series with MCF7 it was 41.6 µM.

Regarding `C[C@]12CC[C@@H]3[C@]4(C=C[C@]5(C[C@@H](O)CC[C@]35C)OO4)[C@@H]1CC/C2=N\OCC(=O)Nc1cccc(Cl)c1`, the IC50 in the series with SK-HEP1 worked out at 22.8 µM; in the series with MDA-MB-231, 29.5 µM; in the series on HepG2, 15.4 µM; with MCF7 it was 34.4 µM.

On to `C[C@]12CC[C@H](O)CC1=CC=C1[C@@H]2CC[C@]2(C)/C(=N/OCC(=O)Nc3cccc(C(F)(F)F)c3)CC[C@@H]12`, for which the IC50 in the series on SK-HEP1 came to 16.5 µM; with MDA-MB-231, 19.4 µM; with HepG2, 14.4 µM; in the series on MCF7, 21.3 µM.

`COc1ccc(NC(=O)CO/N=C2\CC[C@H]3[C@@]45C=C[C@]6(C[C@@H](O)CC[C@]6(C)[C@@H]4CC[C@]23C)OO5)cc1`: the IC50 with SK-HEP1 was 41.4 µM; with MDA-MB-231, 46.4 µM; in the series with HepG2, 49.5 µM; in the series with MCF7, 52.2 µM.

For the molecule `C[C@]12CC[C@@H]3[C@]4(C=C[C@]5(C[C@@H](O)CC[C@]35C)OO4)[C@@H]1CC/C2=N\OCC(=O)Nc1ccc(Cl)cc1`, the IC50 with SK-HEP1 was found to be 11.1 µM; in the series with MDA-MB-231, 14.2 µM; in the series on HepG2 it was 14.8 µM; in the series on MCF7 it was 19.5 µM.

With `C#Cc1cccc(NC(=O)CO/N=C2\CC[C@H]3[C@@]45C=C[C@]6(C[C@@H](O)CC[C@]6(C)[C@@H]4CC[C@]23C)OO5)c1`, the half-maximal inhibitory concentration (IC50) in the series with SK-HEP1 turned out to be 38.2 µM; with MDA-MB-231 it was 25.1 µM; in the series with HepG2, 44.2 µM; in the series on MCF7, 31.6 µM.

In the case of `Cc1ccc(NC(=O)CO/N=C2\CC[C@H]3[C@@]45C=C[C@]6(C[C@@H](O)CC[C@]6(C)[C@@H]4CC[C@]23C)OO5)cc1Cl`, the IC50 was 12.1 µM in the series with SK-HEP1, 17.5 µM in the series on MDA-MB-231, 9.3 µM in the series with HepG2 and 22.7 µM in the series on MCF7.

As to `Cc1ccc(NC(=O)CO/N=C2\CC[C@H]3C4=CC=C5C[C@@H](O)CC[C@]5(C)[C@H]4CC[C@]23C)cc1Cl`, the IC50 with SK-HEP1 stood at 19.8 µM; in the series with MDA-MB-231, 29.2 µM; with HepG2, 17.8 µM; in the series with MCF7 it was 34.3 µM.

On to `CCN(CC)c1ccc2cc(C(=O)NCC(=O)OC3CC[C@]4(C)[C@@H]5CC[C@]6(C)/C(=N/OCC(=O)Nc7ccc(C(C)C)cc7)CC[C@H]6[C@@]56C=C[C@]4(C3)OO6)c(=O)oc2c1` (some centres undefined), for which the IC50 in the series on SK-HEP1 came to 7.52 µM; in the series with MDA-MB-231, 7.22 µM; with HepG2 it was 8.4 µM; with MCF7 it was 9.64 µM. Further, the Drug uptake entry in series [1] and in series [2] was “Active” in each case.

Regarding `C[C@]12CC[C@@H]3[C@]4(C=C[C@]5(C[C@@H](O)CC[C@]35C)OO4)[C@@H]1CC/C2=N\OCC(=O)Nc1ccc(F)cc1`, the IC50 turned out to be 10.7 µM in the series with SK-HEP1, 12.7 µM in the series on MDA-MB-231, 15.8 µM in the series with HepG2 and 14.5 µM in the series with MCF7.

With `COc1cccc(NC(=O)CO/N=C2\CC[C@H]3C4=CC=C5C[C@@H](O)CC[C@]5(C)[C@H]4CC[C@]23C)c1`, the IC50 with SK-HEP1 was more than 80 µM; in the series on MDA-MB-231, 59.3 µM; with HepG2, 70.6 µM; in the series with MCF7, more than 80 µM.

Consider `C[C@]12CC[C@@H]3[C@]4(C=C[C@]5(C[C@@H](O)CC[C@]35C)OO4)[C@@H]1CC/C2=N\OCC(=O)Nc1cccc(C(F)(F)F)c1`, for which the IC50 in the series with SK-HEP1 is 15.6 µM; in the series with MDA-MB-231, 20.4 µM; with HepG2, 13.5 µM; in the series with MCF7 it was 23.1 µM.

`C[C@]12CC[C@@H]3[C@]4(C=C[C@]5(C[C@@H](O)CC[C@]35C)OO4)[C@@H]1CC/C2=N\OCC(=O)Nc1ccccc1`: the IC50 was 60.4 µM in the series on SK-HEP1, 74.2 µM with MDA-MB-231, 48.3 µM in the series with HepG2 and more than 80 µM with MCF7.

As to `Cc1ccc(NC(=O)CO/N=C2\CC[C@H]3[C@@]45C=C[C@]6(C[C@@H](O)CC[C@]6(C)[C@@H]4CC[C@]23C)OO5)cc1`, the IC50 was 46.3 µM in the series with SK-HEP1, more than 80 µM with MDA-MB-231, 38.3 µM with HepG2 and 62.2 µM with MCF7.

Consider `CC(C)[C@@H](C)/C=C/[C@@H](C)[C@H]1CC[C@@H]2[C@]1(C)CC[C@@H]1[C@]23C=C[C@]2(C[C@@H](O)CC[C@]12C)OO3`, for which the concentration for half-maximal inhibition (IC50) with SK-HEP1 worked out at 17.2 µM; in the series with MDA-MB-231 it was 19.2 µM; in the series with HepG2 it was 15.8 µM; in the series with MCF7 it was 23.3 µM.

Regarding `C[C@]12CC[C@@H]3[C@]4(C=C[C@]5(C[C@@H](O)CC[C@]35C)OO4)[C@@H]1CC/C2=N\OCC(=O)Nc1ccc(Br)cc1`, the IC50 in the series with SK-HEP1 turned out to be 24.4 µM; with MDA-MB-231, 37.5 µM; with HepG2 it was 29.9 µM; in the series with MCF7, 40.3 µM.

Take `C[C@]12CC[C@H](O)CC1=CC=C1[C@@H]2CC[C@]2(C)/C(=N/OCC(=O)Nc3cccc(Cl)c3)CC[C@@H]12`: the IC50 is 26.6 µM in the series with SK-HEP1, 33.5 µM in the series on MDA-MB-231, 22.7 µM in the series with HepG2 and 42.1 µM in the series on MCF7.

In the case of `COc1cccc(NC(=O)CO/N=C2\CC[C@H]3[C@@]45C=C[C@]6(C[C@@H](O)CC[C@]6(C)[C@@H]4CC[C@]23C)OO5)c1`, the IC50 with SK-HEP1 is 50.2 µM; in the series with MDA-MB-231, 57.3 µM; in the series on HepG2 it was 44.9 µM; in the series on MCF7, 43.2 µM.

Regarding `CC(C)c1ccc(NC(=O)CO/N=C2\CC[C@H]3[C@@]45C=C[C@]6(C[C@@H](O)CC[C@]6(C)[C@@H]4CC[C@]23C)OO5)cc1`, the half-inhibitory concentration (IC50) with SK-HEP1 was 14.6 µM; in the series on MDA-MB-231, 15.8 µM; in the series with HepG2, 12.1 µM; in the series with MCF7 it was 20.4 µM.

With `C[C@]12CC[C@@H]3[C@]4(C=C[C@]5(C[C@@H](O)CC[C@]35C)OO4)[C@@H]1CC/C2=N\OCC(=O)Nc1ccc(F)c(Cl)c1`, the IC50 in the series with SK-HEP1 is 14.3 µM; in the series on MDA-MB-231 it was 24.6 µM; in the series with HepG2, 11.3 µM; in the series on MCF7, 26.2 µM.

The record behind these values is ChEMBL document CHEMBL4052725, “Synthesis and biological evaluation of novel steroidal 5α,8α-epidioxyandrost-6-ene-3β-ol-17-(O-phenylacetamide)oxime derivatives as potential anticancer agents” (Bioorg Med Chem Lett, 2017).
